{"source": "ChEMBL document CHEMBL1201862", "about": "“PubChem BioAssay data set” (2004)", "format_in_all_cases": "functional", "key": {"[1]": {"target": "Peroxisome proliferator-activated receptor gamma/Nuclear receptor coactivator 3 (Homo sapiens, UniProt P37231)"}, "[2]": {"target": "Ribosomal protein S6 kinase alpha-5 (Homo sapiens, UniProt O75582)"}, "[3]": {"target": "Vascular endothelial growth factor receptor 3 (Homo sapiens, UniProt P35916)"}, "[4]": {"target": "Macrophage colony-stimulating factor 1 receptor (Homo sapiens, UniProt P07333)", "sequence (P07333 whole entry)": "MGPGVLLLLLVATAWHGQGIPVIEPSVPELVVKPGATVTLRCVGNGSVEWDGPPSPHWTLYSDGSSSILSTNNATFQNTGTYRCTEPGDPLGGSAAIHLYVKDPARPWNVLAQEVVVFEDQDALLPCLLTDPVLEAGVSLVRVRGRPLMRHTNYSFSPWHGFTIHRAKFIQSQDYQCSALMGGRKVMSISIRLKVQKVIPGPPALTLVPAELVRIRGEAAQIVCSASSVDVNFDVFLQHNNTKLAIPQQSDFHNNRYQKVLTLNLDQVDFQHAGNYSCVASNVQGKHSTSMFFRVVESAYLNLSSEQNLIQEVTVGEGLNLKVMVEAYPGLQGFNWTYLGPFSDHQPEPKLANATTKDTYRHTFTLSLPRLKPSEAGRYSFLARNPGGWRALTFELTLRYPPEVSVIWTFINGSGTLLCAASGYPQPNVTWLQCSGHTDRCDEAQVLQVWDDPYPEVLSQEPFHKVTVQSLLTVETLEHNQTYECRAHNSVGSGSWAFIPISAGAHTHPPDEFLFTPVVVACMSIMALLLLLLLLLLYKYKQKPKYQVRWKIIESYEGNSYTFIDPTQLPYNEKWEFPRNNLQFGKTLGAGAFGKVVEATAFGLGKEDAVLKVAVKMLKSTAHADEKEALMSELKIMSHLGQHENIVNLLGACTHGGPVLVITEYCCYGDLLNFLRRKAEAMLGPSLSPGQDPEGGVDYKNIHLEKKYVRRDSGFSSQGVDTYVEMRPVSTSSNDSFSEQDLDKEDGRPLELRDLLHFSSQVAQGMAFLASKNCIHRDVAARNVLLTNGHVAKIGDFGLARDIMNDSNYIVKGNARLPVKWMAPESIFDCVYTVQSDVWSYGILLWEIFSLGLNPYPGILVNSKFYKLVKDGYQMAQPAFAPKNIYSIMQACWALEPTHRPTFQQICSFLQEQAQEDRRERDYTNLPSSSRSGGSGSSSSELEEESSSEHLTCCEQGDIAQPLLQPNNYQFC"}, "[5]": {"target": "Ribosomal protein S6 kinase beta-1 (Homo sapiens, UniProt P23443)"}, "[6]": {"target": "MAP kinase-activated protein kinase 5 (Homo sapiens, UniProt Q8IW41)"}, "[7]": {"target": "Serine/threonine-protein kinase D2 (Homo sapiens, UniProt Q9BZL6)"}, "[8]": {"target": "Testis-specific serine/threonine-protein kinase 2 (Homo sapiens, UniProt Q96PF2)"}, "[9]": {"target": "RAC-gamma serine/threonine-protein kinase (Homo sapiens, UniProt Q9Y243)"}, "[10]": {"target": "Tyrosine-protein kinase JAK3 (Homo sapiens, UniProt P52333)"}, "[11]": {"target": "Proto-oncogene tyrosine-protein kinase Src (Homo sapiens, UniProt P12931)", "sequence (P12931 2-536 limits assumed)": "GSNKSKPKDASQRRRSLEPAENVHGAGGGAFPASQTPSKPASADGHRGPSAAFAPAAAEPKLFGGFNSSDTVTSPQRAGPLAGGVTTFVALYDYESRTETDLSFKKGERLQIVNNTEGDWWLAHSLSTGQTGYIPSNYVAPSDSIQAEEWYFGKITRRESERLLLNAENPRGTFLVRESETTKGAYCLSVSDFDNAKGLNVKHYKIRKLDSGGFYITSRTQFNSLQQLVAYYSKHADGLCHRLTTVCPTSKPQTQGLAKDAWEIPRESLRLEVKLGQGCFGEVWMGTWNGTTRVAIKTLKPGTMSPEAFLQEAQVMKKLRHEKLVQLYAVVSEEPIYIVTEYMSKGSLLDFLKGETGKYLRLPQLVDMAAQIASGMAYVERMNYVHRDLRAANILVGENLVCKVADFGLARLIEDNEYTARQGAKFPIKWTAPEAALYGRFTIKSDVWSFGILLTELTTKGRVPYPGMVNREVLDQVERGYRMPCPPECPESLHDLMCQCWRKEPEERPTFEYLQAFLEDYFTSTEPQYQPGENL"}, "[12]": {"target": "STE20-like serine/threonine-protein kinase (Homo sapiens, UniProt Q9H2G2)"}, "[13]": {"target": "Cell division cycle 7-related protein kinase (Homo sapiens, UniProt O00311)"}, "[14]": {"target": "Lymphokine-activated killer T-cell-originated protein kinase (Homo sapiens, UniProt Q96KB5)"}, "[15]": {"target": "Receptor tyrosine-protein kinase erbB-2 (Homo sapiens, UniProt P04626)", "sequence (P04626 whole entry)": "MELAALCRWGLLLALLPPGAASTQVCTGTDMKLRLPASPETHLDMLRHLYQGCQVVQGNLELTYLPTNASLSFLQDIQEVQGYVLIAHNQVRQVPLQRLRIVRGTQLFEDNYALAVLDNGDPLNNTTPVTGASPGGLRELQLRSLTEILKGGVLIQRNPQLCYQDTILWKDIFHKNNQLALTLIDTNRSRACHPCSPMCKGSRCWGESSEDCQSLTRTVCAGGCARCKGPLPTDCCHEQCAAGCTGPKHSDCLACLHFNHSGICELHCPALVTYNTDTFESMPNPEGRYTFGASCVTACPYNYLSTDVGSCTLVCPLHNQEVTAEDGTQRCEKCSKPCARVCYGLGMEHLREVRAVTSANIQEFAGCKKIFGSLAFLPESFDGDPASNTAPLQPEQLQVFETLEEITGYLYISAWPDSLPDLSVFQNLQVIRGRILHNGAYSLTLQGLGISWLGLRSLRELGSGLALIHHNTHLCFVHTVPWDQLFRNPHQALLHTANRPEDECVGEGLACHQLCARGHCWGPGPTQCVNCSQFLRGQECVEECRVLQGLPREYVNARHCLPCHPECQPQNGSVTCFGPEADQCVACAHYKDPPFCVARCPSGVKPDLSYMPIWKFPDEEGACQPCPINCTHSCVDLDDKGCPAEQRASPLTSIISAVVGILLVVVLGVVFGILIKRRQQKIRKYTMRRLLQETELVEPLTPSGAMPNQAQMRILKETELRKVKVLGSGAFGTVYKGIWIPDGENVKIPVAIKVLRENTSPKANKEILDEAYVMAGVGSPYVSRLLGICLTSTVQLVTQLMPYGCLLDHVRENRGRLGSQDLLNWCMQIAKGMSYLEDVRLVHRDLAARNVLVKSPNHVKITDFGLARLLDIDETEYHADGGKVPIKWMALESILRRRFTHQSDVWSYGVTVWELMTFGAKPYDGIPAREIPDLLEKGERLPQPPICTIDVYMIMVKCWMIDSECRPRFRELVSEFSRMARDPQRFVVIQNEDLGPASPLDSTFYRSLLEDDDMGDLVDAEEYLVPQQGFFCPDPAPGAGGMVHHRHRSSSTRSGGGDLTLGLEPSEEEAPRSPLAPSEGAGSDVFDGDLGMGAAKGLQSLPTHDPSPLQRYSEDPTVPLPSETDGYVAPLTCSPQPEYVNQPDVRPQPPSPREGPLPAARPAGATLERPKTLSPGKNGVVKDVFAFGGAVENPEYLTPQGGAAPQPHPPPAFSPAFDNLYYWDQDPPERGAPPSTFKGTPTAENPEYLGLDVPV", "assay": "Navigating the Kinome. Panel member name: ERBB2"}, "[16]": {"target": "cAMP-dependent protein kinase catalytic subunit alpha (Homo sapiens, UniProt P17612)"}, "[17]": {"target": "Protein kinase C gamma type (Homo sapiens, UniProt P05129)"}, "[18]": {"target": "Fibroblast growth factor receptor 1 (Homo sapiens, UniProt P11362)", "sequence (P11362 whole entry)": "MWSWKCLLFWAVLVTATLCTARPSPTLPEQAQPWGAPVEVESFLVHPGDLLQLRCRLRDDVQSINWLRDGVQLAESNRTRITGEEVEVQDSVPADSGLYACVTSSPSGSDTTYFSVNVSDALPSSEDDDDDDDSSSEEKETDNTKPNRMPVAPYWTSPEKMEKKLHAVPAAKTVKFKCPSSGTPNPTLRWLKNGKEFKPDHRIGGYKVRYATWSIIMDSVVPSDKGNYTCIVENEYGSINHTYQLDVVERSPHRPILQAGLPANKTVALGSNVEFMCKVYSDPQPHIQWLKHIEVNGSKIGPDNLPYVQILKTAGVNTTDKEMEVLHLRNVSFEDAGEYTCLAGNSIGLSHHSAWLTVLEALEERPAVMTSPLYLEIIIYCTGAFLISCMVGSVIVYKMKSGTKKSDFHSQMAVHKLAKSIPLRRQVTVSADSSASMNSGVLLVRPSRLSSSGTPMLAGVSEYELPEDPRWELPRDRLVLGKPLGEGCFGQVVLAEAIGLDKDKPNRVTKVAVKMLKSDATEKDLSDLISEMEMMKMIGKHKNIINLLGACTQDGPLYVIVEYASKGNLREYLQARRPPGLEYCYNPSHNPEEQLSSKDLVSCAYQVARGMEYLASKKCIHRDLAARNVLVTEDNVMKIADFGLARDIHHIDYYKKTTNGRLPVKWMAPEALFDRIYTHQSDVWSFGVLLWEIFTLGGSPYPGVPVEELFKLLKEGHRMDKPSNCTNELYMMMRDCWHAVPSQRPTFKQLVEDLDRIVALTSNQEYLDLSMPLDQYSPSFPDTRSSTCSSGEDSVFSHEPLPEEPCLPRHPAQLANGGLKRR"}, "[19]": {"target": "Serine/threonine-protein kinase Nek4 (Homo sapiens, UniProt P51957)", "sequence (P51957 whole entry)": "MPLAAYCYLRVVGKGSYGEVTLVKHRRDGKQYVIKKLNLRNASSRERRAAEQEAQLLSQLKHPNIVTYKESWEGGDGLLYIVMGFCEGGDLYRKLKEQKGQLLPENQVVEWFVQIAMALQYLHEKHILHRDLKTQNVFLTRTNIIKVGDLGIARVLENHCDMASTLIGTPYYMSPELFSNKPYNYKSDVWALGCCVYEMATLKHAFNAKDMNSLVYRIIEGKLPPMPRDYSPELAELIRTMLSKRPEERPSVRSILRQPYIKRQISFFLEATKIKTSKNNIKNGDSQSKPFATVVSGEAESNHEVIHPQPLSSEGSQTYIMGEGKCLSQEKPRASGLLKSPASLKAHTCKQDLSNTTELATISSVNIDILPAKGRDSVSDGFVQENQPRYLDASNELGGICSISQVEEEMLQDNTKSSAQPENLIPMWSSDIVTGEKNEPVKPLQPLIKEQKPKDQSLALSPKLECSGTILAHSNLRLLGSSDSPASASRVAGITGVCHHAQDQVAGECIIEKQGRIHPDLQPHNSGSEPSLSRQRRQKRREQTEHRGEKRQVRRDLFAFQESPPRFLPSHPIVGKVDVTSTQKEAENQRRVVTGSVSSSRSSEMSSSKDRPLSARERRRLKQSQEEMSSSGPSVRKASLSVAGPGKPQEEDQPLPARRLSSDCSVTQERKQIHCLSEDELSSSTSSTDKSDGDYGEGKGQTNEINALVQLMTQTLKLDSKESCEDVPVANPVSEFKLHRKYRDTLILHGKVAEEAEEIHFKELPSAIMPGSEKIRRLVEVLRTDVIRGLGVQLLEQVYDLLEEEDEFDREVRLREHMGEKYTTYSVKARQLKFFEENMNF"}, "[20]": {"target": "T1, Sentrin-specific protease 7 (Homo sapiens, UniProt Q9BQF6)", "T1 sequence (Q9BQF6 whole entry)": "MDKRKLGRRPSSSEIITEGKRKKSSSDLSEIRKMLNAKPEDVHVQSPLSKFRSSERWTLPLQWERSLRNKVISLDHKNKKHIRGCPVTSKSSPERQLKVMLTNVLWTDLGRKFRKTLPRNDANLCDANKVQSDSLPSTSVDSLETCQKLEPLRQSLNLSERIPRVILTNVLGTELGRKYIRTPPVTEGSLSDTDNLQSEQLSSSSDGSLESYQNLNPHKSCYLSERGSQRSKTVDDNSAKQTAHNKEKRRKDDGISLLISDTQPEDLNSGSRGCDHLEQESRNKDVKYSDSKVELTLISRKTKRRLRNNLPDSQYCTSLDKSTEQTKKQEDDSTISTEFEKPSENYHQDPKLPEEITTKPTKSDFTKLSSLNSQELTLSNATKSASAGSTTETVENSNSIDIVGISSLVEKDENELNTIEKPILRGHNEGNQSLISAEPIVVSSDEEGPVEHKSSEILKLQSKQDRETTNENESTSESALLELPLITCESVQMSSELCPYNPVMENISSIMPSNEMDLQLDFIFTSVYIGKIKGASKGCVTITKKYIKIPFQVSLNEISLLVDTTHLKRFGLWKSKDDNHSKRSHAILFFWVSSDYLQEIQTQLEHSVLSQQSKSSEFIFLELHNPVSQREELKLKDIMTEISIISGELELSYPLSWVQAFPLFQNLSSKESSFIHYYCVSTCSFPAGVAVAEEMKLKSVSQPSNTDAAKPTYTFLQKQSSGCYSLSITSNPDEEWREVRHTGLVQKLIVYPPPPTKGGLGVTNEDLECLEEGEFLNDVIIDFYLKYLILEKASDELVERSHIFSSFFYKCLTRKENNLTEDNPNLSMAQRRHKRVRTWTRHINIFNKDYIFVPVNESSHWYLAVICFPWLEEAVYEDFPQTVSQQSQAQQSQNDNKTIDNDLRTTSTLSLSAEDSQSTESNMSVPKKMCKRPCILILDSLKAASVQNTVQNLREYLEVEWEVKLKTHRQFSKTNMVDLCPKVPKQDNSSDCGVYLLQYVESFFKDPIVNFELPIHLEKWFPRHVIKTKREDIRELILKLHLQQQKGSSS", "assay": "SENP7 protease inhibitors, SAR follow-up, biochemical, luminescence (AID 504497)"}, "Mu-type opioid receptor": {"target": "Mu-type opioid receptor (Homo sapiens, UniProt P35372)", "sequence (P35372 whole entry)": "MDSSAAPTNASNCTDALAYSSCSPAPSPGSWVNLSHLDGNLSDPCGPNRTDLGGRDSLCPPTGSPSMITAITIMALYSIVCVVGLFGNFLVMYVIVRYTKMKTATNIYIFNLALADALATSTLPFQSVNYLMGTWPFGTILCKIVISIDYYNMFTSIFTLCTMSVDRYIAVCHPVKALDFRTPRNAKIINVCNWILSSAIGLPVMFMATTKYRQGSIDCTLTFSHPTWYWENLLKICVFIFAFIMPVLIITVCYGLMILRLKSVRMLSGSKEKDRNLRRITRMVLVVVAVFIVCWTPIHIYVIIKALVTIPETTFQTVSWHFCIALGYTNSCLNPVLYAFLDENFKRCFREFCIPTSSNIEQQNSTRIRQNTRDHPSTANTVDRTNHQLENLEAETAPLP", "assay": "HTS Image-Based Screen for Agonists of the MOR Receptor. [Related pubchem assays (depositor defined):AID1777, AID1785, AID1786, AID2133]"}, "HeLa": {"test_system": "HeLa", "assay": "Cytotoxicity counterscreen assay for transcriptional activators of heat shock protein 70 (Hsp70). [Related pubchem assays: 1203, 1252 ]", "conditions": "Homo sapiens"}, "[21]": {"assay": "NIH-3T3 fibroblast cytotoxicity, dose response, cytotoxicity control, cell-based, fluorescence, Alamar Blue, secondary assay (AID 2327);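 also: NIH-3T3 mouse fibroblasts cultured with fluconazole at 8 µg/mL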"}, "[22]": {"target": "Alkaline phosphatase, placental type (Homo sapiens, UniProt P05187)", "assay": "PLAP enzyme inhibitors, confirmation, biochemical, luminescence (AID 1512)"}, "[23]": {"target": "T2, Type-1 angiotensin II receptor (Homo sapiens, UniProt P30556)", "T2 sequence (P30556 whole entry)": "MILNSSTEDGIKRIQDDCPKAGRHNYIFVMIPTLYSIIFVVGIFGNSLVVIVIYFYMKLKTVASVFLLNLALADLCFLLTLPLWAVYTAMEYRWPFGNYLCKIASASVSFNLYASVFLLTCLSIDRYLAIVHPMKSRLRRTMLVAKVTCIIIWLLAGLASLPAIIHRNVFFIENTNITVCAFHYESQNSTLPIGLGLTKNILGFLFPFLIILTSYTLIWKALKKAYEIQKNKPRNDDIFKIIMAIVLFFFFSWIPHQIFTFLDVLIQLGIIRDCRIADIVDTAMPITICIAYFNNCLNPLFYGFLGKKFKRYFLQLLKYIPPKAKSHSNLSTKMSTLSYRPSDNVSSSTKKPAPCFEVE", "assay": "AT1 receptor antagonists, dose response, selectivity assay for APJ receptor antagonist project, cell-based, uHTS hits (AID 463214);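 also: antagonist potency against angiotensin II stimulated AT1 response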"}}, "note": "Calls of active or inactive are those of the source.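 For CC50 in this document: cells exposed to compound for 16 hours before readout.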", "data": [{"smiles": "CN(C)c1ncc(C2=C(Cl)C(=O)C(N3CCCC3)=C(Cl)C2=O)s1", "values": [{"measurement": "EC50", "setting": "[1]", "value": "> 79.4 µM (not active)"}]}, {"smiles": "O=C1NC(=S)SC1=C1C(=O)Nc2ccc(Br)cc21", "values": [{"measurement": "Ki", "setting": "[2]", "value": "> 2 µM (inactive)"}, {"measurement": "Ki", "setting": "[3]", "value": "> 6.31 µM (inactive)"}, {"measurement": "Ki", "setting": "[4]", "value": "> 2.51 µM (inactive)"}, {"measurement": "Ki", "setting": "[5]", "value": "6.31 µM (active)"}, {"measurement": "Ki", "setting": "[6]", "value": "> 1.58 µM (inactive)"}, {"measurement": "Ki", "setting": "[7]", "value": "3.16 µM (active)"}, {"measurement": "Ki", "setting": "[8]", "value": "> 1.58 µM (inactive)"}, {"measurement": "Ki", "setting": "[9]", "value": "> 10 µM (inactive)"}, {"measurement": "Ki", "setting": "[10]", "value": "> 1.58 µM (inactive)"}, {"measurement": "Ki", "setting": "[11]", "value": "> 2 µM (inactive)"}, {"measurement": "Ki", "setting": "[12]", "value": "1.26 µM (active)"}, {"measurement": "Ki", "setting": "[13]", "value": "> 1.26 µM (inactive)"}, {"measurement": "Ki", "setting": "[14]", "value": "7.94 µM (active)"}, {"measurement": "Ki", "setting": "[15]", "value": "> 1.58 µM (inactive)"}, {"measurement": "Ki", "setting": "[16]", "value": "> 7.94 µM (inactive)"}, {"measurement": "Ki", "setting": "[17]", "value": "> 7.94 µM (inactive)"}, {"measurement": "Ki", "setting": "[18]", "value": "> 5.01 µM (inactive)"}, {"measurement": "Ki", "setting": "[19]", "value": "> 6.31 µM (inactive)"}]}, {"smiles": "Cc1cnc(NC(=O)c2sc3ccccc3c2Cl)s1", "values": [{"measurement": "IC50", "setting": "[20]", "value": "1.77 µM (active)"}]}, {"smiles": "Cc1ccc(Nc2cc(C)nn2-c2nc(C)cc(O)n2)cc1", "values": [{"measurement": "EC50", "setting": "Mu-type opioid receptor", "value": "> 32 µM (inactive)"}, {"measurement": "CC50", "setting": "HeLa", "value": "7.59 µM (active)"}, {"measurement": "EC50", "setting": "[21]", "value": "1.76 µM (inconclusive)"}, {"measurement": "IC50", "setting": "[22]", "value": "> 100 µM (inactive)"}, {"measurement": "IC50", "setting": "[23]", "value": "1.77 µM (active)"}]}]}
